Laboratory results published in ChEMBL document CHEMBL4184126, “Synthesis of novel 6-substituted amino-9-(β-d-ribofuranosyl)purine analogs and their bioactivities on human epithelial cancer cells” (Bioorg Med Chem Lett, 2018).

Columns and labels:
Type in all cases: functional, cell-based
Huh-7 = test: Antiproliferative activity against human HuH7 cells after 72 hrs by SRB assay
HCT-116 = test: Antiproliferative activity against human HCT116 cells after 72 hrs by SRB assay
MCF7 = test: Antiproliferative activity against human MCF7 cells after 72 hrs by SRB assay
HepG2 = test: Antiproliferative activity against human HepG2 cells after 72 hrs by SRB assay
Mahlavu = test: Antiproliferative activity against human Mahlavu cells after 72 hrs by SRB assay
[1] = Antiproliferative activity against human FOCUS cells after 72 hrs by SRB assay
[2] = Homo sapiens, Huh-7, 72 h, read-out: IC50
[3] = Homo sapiens, HCT-116, 72 h, read-out: IC50
[4] = Homo sapiens, HepG2, 72 h, read-out: IC50
[5] = Homo sapiens, Mahlavu, 72 h, read-out: IC50
[6] = Homo sapiens, MCF7, 72 h, read-out: IC50
[7] = Homo sapiens, 72 h, read-out: IC50

Row | SMILES | IC50 (Huh-7; [2]) [µM] | IC50 (HCT-116; [3]) [µM] | IC50 (MCF7; mcf7) | IC50 (Huh-7; huh-7) | IC50 (HCT-116; hct-116) | IC50 (HepG2; [4]) [µM] | IC50 (Mahlavu; [5]) [µM] | IC50 (MCF7; [6]) [µM] | IC50 [1, 7] [µM] | IC50 (HepG2; hepg2) | IC50 [1] | IC50 (Mahlavu; mahlavu)
1 | Nc1nc(N2CCN(c3ccc(F)cc3)CC2)c2ncn([C@@H]3O[C@H](CO)[C@@H](O)[C@H]3O)c2n1 | > 100 | 30 | Not Active |  |  |  |  |  |  |  |  | 
2 | Cc1ccc(N2CCN(c3nc(N)nc4c3ncn4[C@@H]3O[C@H](CO)[C@@H](O)[C@H]3O)CC2)cc1 |  |  | Not Active | Not Active | Not Active |  |  |  |  |  |  | 
3 | OC[C@H]1O[C@@H](n2cnc3c(N4CCN(c5ccc(C(F)(F)F)cc5)CC4)nc(Cl)nc32)[C@H](O)[C@@H]1O | 1 to 2 | 1 |  |  |  | 3 | 3 | 4 | 1 |  |  | 
4 | CSc1ccc(Nc2ncnc3c2ncn3[C@@H]2O[C@H](CO)[C@@H](O)[C@H]2O)cc1 |  | > 100 | Not Active | Not Active |  |  |  |  |  |  |  | 
5 | Nc1nc(N2CCN(C(c3ccccc3)c3ccccc3)CC2)c2ncn([C@@H]3O[C@H](CO)[C@@H](O)[C@H]3O)c2n1 | 10 | 20 |  |  |  | 20 | 7 | 20 | 20 |  |  | 
6 | CC(C)c1ccc(Nc2ncnc3c2ncn3[C@@H]2O[C@H](CO)[C@@H](O)[C@H]2O)cc1 | 60 | 10 |  |  |  | 40 | 40 | 50 | 20 |  |  | 
7 | OC[C@H]1O[C@@H](n2cnc3c(Nc4ccc(N5CCOCC5)cc4)ncnc32)[C@H](O)[C@@H]1O |  |  |  | Not Active | Not Active |  |  | 80 |  |  |  | 
8 | OC[C@H]1O[C@@H](n2cnc3c(N4CCN(C5CCCCC5)CC4)ncnc32)[C@H](O)[C@@H]1O |  | > 100 | Not Active | Not Active |  |  |  |  |  |  |  | 
9 | Cc1ccc(N2CCN(c3ncnc4c3ncn4[C@@H]3O[C@H](CO)[C@@H](O)[C@H]3O)CC2)cc1 |  | 70 |  | Not Active |  |  | > 100 | > 100 | 40 | Not Active |  | 
10 | CN(C)c1ccc(Nc2ncnc3c2ncn3[C@@H]2O[C@H](CO)[C@@H](O)[C@H]2O)cc1 | 80 | 40 |  |  |  | 30 | 30 | 30 | 20 |  |  | 
11 | OC[C@H]1O[C@@H](n2cnc3c(NCCC4=CCCCC4)nc(Cl)nc32)[C@H](O)[C@@H]1O | 20 | 90 |  |  |  | 40 | 30 | 30 | 50 |  |  | 
12 | OC[C@H]1O[C@@H](n2cnc3c(N4CCN(c5ncccn5)CC4)ncnc32)[C@H](O)[C@@H]1O |  | > 100 |  | Not Active |  |  |  | 40 |  |  |  | 
13 | OC[C@H]1O[C@@H](n2cnc3c(NCCC4=CCCCC4)ncnc32)[C@H](O)[C@@H]1O | > 100 | 6 |  |  |  | 1 | > 100 | 3 |  |  | Not Active | 
14 | Nc1nc(N2CCN(c3ccccc3)CC2)c2ncn([C@@H]3O[C@H](CO)[C@@H](O)[C@H]3O)c2n1 | 50 | 30 | Not Active |  |  | > 100 |  |  | 9 |  |  | Not Active
15 | Nc1nc(N2CCN(c3ncccn3)CC2)c2ncn([C@@H]3O[C@H](CO)[C@@H](O)[C@H]3O)c2n1 |  |  | Not Active | Not Active | Not Active |  |  |  |  |  |  | 
16 | OC[C@H]1O[C@@H](n2cnc3c(NCCNc4ccccc4)ncnc32)[C@H](O)[C@@H]1O |  | 30 |  | Not Active |  |  |  | > 100 |  |  |  | 
17 | Nc1nc(Cl)nc2c1ncn2[C@H]1C[C@H](O)[C@@H](CO)O1 [CLADRIBINE] | 0.4 to 0.9 | < 0.1 |  |  |  | 0.04 | 0.1 |  | 0.4 |  |  | 
18 | Nc1nc(F)nc2c1ncn2[C@@H]1O[C@H](CO)[C@@H](O)[C@@H]1O [FLUDARABINE] | 30 | 8 |  |  |  | 20 | 10 | 15 | 10 |  |  | 
19 | O=c1[nH]cc(F)c(=O)[nH]1 [FLUOROURACIL] | 30 | 4 |  |  |  |  | 10 | 3 | 4 |  |  | 
